Where two headings read alike, the source gives them in different places. One block for each compound: values may come before it.
Tests used:
[1] = prior art statement; cited from earlier work
breast cancer = conditions: intramuscular injection, prior art statement; cited from earlier work
[2] = in vivo PK properties (cassette PK); conditions: plasma; for AUC(0-t): read-out: AUC0-last (nm/hr)
[3] = tested on: MCF-7 breast cancer cell xenograft; assay: antitumor activity on MCF-7 breast cancer cell xenograft model; assay type: in vivo, BALB/c nude mice; conditions: oral, once a day, ARN-810 10/30 mg/kg, I-1 30 mg/kg
Method: Mice were inoculated subcutaneously with 0.36 mg estrogen sustained release tablet (60 days release) on the left shoulder three days before inoculation. When cells were in the logarithmic growth phase, cells were harvested, counted and adjusted to 10×10^7 cells/mL, then an equal volume of Matrigel was added, mixing for inoculation. 0.2 mL MCF-7 tumor cell suspension (10×10^6) was inoculated subcutaneously into the right shoulder of each mouse. On the 7th day after tumor cell inoculation, mice were grouped and administrated once a day, with an average tumor volume of 169 mm^3 and a body weight of 23.33 g. Tumor volume and body weight were measured twice a week after grouping, and the tumor growth rate (T/C) and tumor growth inhibition rate (TGI) were calculated based on the last measuring data on the 17th day after grouping.

[4] = drug distribution in tissues (plasma, tumor, brain); assay type: in vivo, mice; conditions: dose 67.3 μmol/kg, 20th day after grouping
Method: On the 20th day after grouping, the sample was collected from plasma, tumor, breast and brain of the mice at four time points (2-3 mice each time point) which was respectively 0.5 hour, 1.5 hours, 6 hours and 24 hours after administration. The blood (0.5 mL) was collected using a 1.5 mL EDTA-K2 anticoagulation tube, immediately centrifuged at 4000 rpm, 4° C. for 10 minutes to prepare plasma, the plasma sample was stored at −80° C. for determination of drug concentration. The tumor was collected using a 2 mL cryotube, and the brain was collected using a 5 mL cryotube, the samples were immediately put into liquid nitrogen for quike freeze. All samples were stored at −80° C. for determination of drug concentration after sampling. The result was converted based on corresponding AUC to compare the drug distribution.

MCF-7 cells = assay: MCF-7 cell proliferation inhibition assay; assay type: cell-based; conditions: Homo sapiens, MCF7, 144 h; MCF-7 cells, 6 days incubation, CellTiter-Glo; read-out: anti-proliferation in MCF-7 cells
Method: Experimental Reagent: RPMI 1640 medium, fetal bovine serum, Promega CellTiter-Glo reagent. The cell line MCF-7 was purchased from The European Collection of Authenticated Cell Cultures (ECACC). Envision Multilabel Reader (PerkinElmer). Experimental Method: […] The cell plate was placed in a carbon dioxide incubator overnight. […] The cell plate was incubated in a carbon dioxide incubator for 6 days. Promega CellTiter-Glo reagent was added to the cell plate at 25 μL per well, cells were incubated for 10 minutes at room temperature to stabilize the luminescence signal, which was measured using PerkinElmer Envision Multilabel Reader. Data Analysis: […] (Model 205 in XLFIT5, iDBS)

Structure (SMILES): C[C@]12CC[C@@H]3c4ccc(O)cc4C[C@@H](CCCCCCCCC[S+]([O-])CCCC(F)(F)C(F)(F)F)[C@H]3[C@@H]1CC[C@@H]2O (stereo partly shown) [fulvestrant]
oral bioavailability [1]: zero
breast cancer patients showing clinical response (breast cancer): about 50%

C0 ([2]; iv, 1 mg/kg, i.V. 1 mpk): 1640 nM
clearance ([2]; iv, 1 mg/kg, i.V. 1 mpk): 18.9 mL/min/kg
half-life ([2]; iv, 1 mg/kg, i.V. 1 mpk): 1.35 h
AUC(0-t) ([2]; iv, 1 mg/kg, i.V. 1 mpk): 1.99 µM·h
Vd ([2]; iv, 1 mg/kg, i.V. 1 mpk, read-out: Vdss): 1.93 L/kg
Cmax ([2]; po, 2.5 mg/kg, P.O 2.5 mpk): 924 nM
Tmax ([2]; po, 2.5 mg/kg, P.O 2.5 mpk): 0.417 h
bioavailability ([2]; po, 2.5 mg/kg, P.O 2.5 mpk): 66%
half-life ([2]; po, 2.5 mg/kg, P.O 2.5 mpk): 3.49 h
AUC(0-t) ([2]; po, 2.5 mg/kg, P.O 2.5 mpk): 3.28 µM·h
AUC0-last (nmol · h/kg) brain ([4]; brain): 3490 nmol·h/kg
AUC0-last (nmol · h/kg) plasma ([4]; plasma): 33545 nmol·h/kg
AUC0-last (nmol · h/kg) tumor ([4]; tumor): 11368 nmol·h/kg
Structure (SMILES): CC/C(=C(/c1ccc(/C=C/C(=O)O)cc1)c1ccc2[nH]ncc2c1)c1ccc(F)cc1Cl [ARN-810, reference compound]
T/C (%) ([3]; 17th day after grouping): 43.4%
TGI (%) ([3]; 17th day after grouping): 75.7%
tumor volumn (mm^3) 17th day after grouping ([3]; Mean ± SEM): 290 ± 38 mm^3

IC50 (MCF-7 cells): 4.11 nM
Structure (SMILES): CC/C(=C(/c1ccc(/C=C/C(=O)O)cc1)c1cc2ccccc2[nH]1)c1ccc(Cl)cc1C(F)(F)F [Compound I-14]

IC50 (MCF-7 cells): 9.24 nM
Structure (SMILES): CC/C(=C(/c1ccc(/C=C/C(=O)O)cc1)c1cc2ccccc2[nH]1)c1ccccc1Cl [Compound I-51]

IC50 (MCF-7 cells): 23 nM
Structure (SMILES): CC/C(=C(/c1ccc(/C=C/C(=O)O)cc1)c1[nH]c2ccccc2c1C)c1cccc(C)c1 [Compound I-54]

IC50 (MCF-7 cells): 1.56 nM
Structure (SMILES): CC/C(=C(/c1ccc(/C=C/C(=O)O)cc1)c1[nH]c2ccccc2c1Cl)c1ccc(OC)cc1C#N [Compound I-43]

IC50 (MCF-7 cells): 35 nM
Structure (SMILES): CC/C(=C(/c1ccc(/C=C/C(=O)O)cc1)c1[nH]c2ccccc2c1Cl)c1csc(C)c1 [Compound I-56]

IC50 (MCF-7 cells): 4.78 nM
Structure (SMILES): CC/C(=C(/c1ccc(/C=C/C(=O)O)cc1)c1[nH]c2ccccc2c1C)c1ccc(F)cc1Cl [Compound I-19]

IC50 (MCF-7 cells): 7.75 nM
Structure (SMILES): CC/C(=C(/c1ccc(OCCN2CC(CF)C2)cc1)c1cc2ccc(F)cc2[nH]1)c1ccc(F)cc1Cl [II-2]

IC50 (MCF-7 cells): 48 nM
Structure (SMILES): CC/C(=C(/c1ccc(/C=C/C(=O)O)cc1)c1cc2ccccc2[nH]1)c1ccc2c(c1)OCCO2 [Compound I-30]

IC50 (MCF-7 cells): 7.43 nM
Structure (SMILES): CC/C(=C(/c1ccc(OCCN2CC(CC#N)C2)cc1)c1cc2ccccc2[nH]1)c1ccccc1C#N [II-11]

IC50 (MCF-7 cells): 61 nM
Structure (SMILES): CC/C(=C(/c1ccc(/C=C/C(=O)O)cc1)c1cc2ccccc2[nH]1)c1ccc(OC)cc1 [Compound I-32]

— patent publication US10519143B2, “Substituted-indole-compounds as estrogen receptor down-regulators” (LUOXIN PHARMACEUTICAL (SHANGHAI) CO., LTD, priority 2016, dated 2019)
